Laboratory results: US12161628B2, “Combination therapy” (Medivation Prostate Therapeutics LLC, priority 2015, dated 2024)
Where “and” joins values, the source holds several entries; their conditions need not be identical. Equal values may be shown once. Read-outs that look alike come from different tables or passages of the source. Blank lines part the entries; values can stand above or below the molecule they belong to.

Tests used:
[1] = human, in vivo
Description: (§1) For all subjects in the rifampin treatment arm, the last quantifiable enzalutamide concentration was measured prior to the end of the rifampin dosing period (up to 13 days after enzalutamide dosing).
(§2) It should be noted that AUCs could only be accurately determined for 4 subjects in the enzalutamide treatment arm (treatment arm 1) and 6 subjects in the enzalutamide+rifampin treatment arm (treatment arm 2).

[2] = Rifampin plasma pharmacokinetics on day 8 after multiple doses of 600 mg once daily; type: in vivo, human (healthy volunteers); conditions: multiple doses of 600 mg rifampin once daily; for AUC / concentration at 2 h / Cmax / Tmax: human, plasma, oral, 600 mg
Description: Data handling. The actual sampling time of enzalutamide and its metabolites for 6 subjects (7 samples in total), and the actual sampling time of the 2-hour rifampin sample of subject 10002 on Day 21 deviated more than 10% of the scheduled time point.
In FIG. 7, individual and mean rifampin C2H plasma concentrations that were obtained during the entire dosing period of 21 days are presented.
Median tmax was reached 2 hours post-dose.

[3] = Drug-drug interaction trial: plasma pharmacokinetics of enzalutamide, M1, M2 and sum of enzalutamide plus M2 after single 160 mg enzalutamide alone or with multiple doses of rifampin; conditions: for MPR (MWC): metabolite versus parent ratio (molecular weight corrected), Mean: based on AUCinf;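 for all read-outs here: human plasma pharmacokinetics in a two-arm drug interaction trial comparing enzalutamide given alone against enzalutamide given with rifampin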
Description: as §1, §2

CYP3A4 = conditions: in vivo
Description: Data handling. […] In addition, for many subjects, urine samples taken post enzalutamide dose were not taken within 180 minutes of the ‘virtual’ enzalutamide dosing time (i.e., day 1 enzalutamide dosing time [enzalutamide treatment arm{treatment arm 1}] and day 8 enzalutamide dosing time [enzalutamide+rifampin treatment arm {treatment arm 2}]) and/or pre-dose of rifampin. The 6β-hydroxycortisol and cortisol concentrations of these urine samples and obtained 6β-hydroxycortisol/cortisol ratios were excluded from summary statistics.

clinical = conditions: human, in vivo; for Vd/F: Vz/F
Description: as §1, §2

[4] = plasma, Enzalutamide (Reference), single 160 mg dose alone
[5] = plasma, single dose 160 mg enzalutamide alone
[6] = plasma, single dose 160 mg enzalutamide in the presence of multiple doses of 600 mg rifampin once daily (Test)

SMILES: CC1(C)C(=O)N(c2ccc(C#N)c(C(F)(F)F)c2)C(=S)N1c1ccc(C(=O)O)c(F)c1 [M1]
AUC0-336hr lower in the presence of rifampin [1]: 15%
AUCinf lower in the presence of rifampin [1]: 32%
AUC0-336h, Mean ([1]; 160 mg): 32.49 µg·h/mL
AUC0-336h, Median ([1]; 160 mg): 31.38 µg·h/mL
AUC0-t, Mean ([1]; 160 mg): 47.87 µg·h/mL
AUC0-t, Median ([1]; 160 mg): 46.66 µg·h/mL
AUCinf, Geometric LS Mean ([1]; 160 mg): 59.62 µg·h/mL
AUCinf, Mean ([1]; 160 mg): 62.14 µg·h/mL
AUCinf, Median ([1]; 160 mg): 57.39 µg·h/mL
Cmax, Geometric LS Mean ([1]; 160 mg): 134.6 ng/mL
Cmax, Mean ([1]; 160 mg): 141.4 ng/mL
Cmax, Median ([1]; 160 mg): 135 ng/mL
t1/2, Mean ([1]; 160 mg): 223.9 h
t1/2, Median ([1]; 160 mg): 236.6 h

AUC ([2]; read-out: AUCtau, Mean): 35.6 µg·h/mL
AUC ([2]; read-out: AUCtau, Median): 35.2 µg·h/mL
concentration at 2 h ([2]; read-out: C2h, Mean): 6760 ng/mL
concentration at 2 h ([2]; read-out: C2h, Median): 6620 ng/mL
Cmax ([2]; read-out: Cmax, Mean): 7160 ng/mL
Cmax ([2]; read-out: Cmax, Median): 7040 ng/mL
Tmax ([2]; read-out: tmax, Mean): 1.72 h
Tmax ([2]; read-out: tmax, Median): 2 h
Cmin, Mean [2]: 0 ng/mL
SMILES: CO[C@H]1/C=C/O[C@@]2(C)Oc3c(C)c(O)c4c(O)c(c(/C=N/N5CCN(C)CC5)c(O)c4c3C2=O)NC(=O)/C(C)=C\C=C\[C@H](C)[C@H](O)[C@@H](C)[C@@H](O)[C@@H](C)[C@H](OC(C)=O)[C@@H]1C [Rifampin, rifampin]

SMILES: CC1(C)C(=O)N(c2ccc(C#N)c(C(F)(F)F)c2)C(=S)N1c1ccc(C(N)=O)c(F)c1 [M2, N-desmethyl enzalutamide]
AUC0-336hr higher in the presence of rifampin ([3]; compared to enzalutamide alone): 15%
AUCinf lower in the presence of rifampin ([3]; compared to enzalutamide alone): 15%
Cmax higher in the presence of rifampin ([3]; compared to enzalutamide alone): 34%
AUCinf, Geometric LS Mean [3, 4]: 349.3 µg·h/mL
Cmax, Geometric LS Mean [3, 4]: 737 ng/mL
AUC0-336h, Mean [3, 5]: 197.6 µg·h/mL
AUC0-336h, Median [3, 5]: 184.1 µg·h/mL
AUC0-t, Mean [3, 5]: 344.3 µg·h/mL
AUC0-t, Median [3, 5]: 338.3 µg·h/mL
AUCinf, Mean [3, 5]: 354.0 µg·h/mL
AUCinf, Median [3, 5]: 351.0 µg·h/mL
Cmax, Mean [3, 5]: 754.6 ng/mL
Cmax, Median [3, 5]: 714.5 ng/mL
MPR (MWC): metabolite versus parent ratio (molecular weight corrected), Median [3, 5]: 1.373
t1/2, Mean [3, 5]: 190.4 h
t1/2, Median [3, 5]: 182.1 h
tmax, Mean [3, 5]: 161.3 h
MPR (MWC): metabolite versus parent ratio (molecular weight corrected), Mean [3, 5]: 1.385 and 1.431
AUC0-336h, Mean [3, 6]: 224.0 µg·h/mL
AUC0-336h, Median [3, 6]: 221.9 µg·h/mL
AUC0-t, Mean [3, 6]: 292.1 µg·h/mL
AUC0-t, Median [3, 6]: 293.5 µg·h/mL
AUCinf, Mean [3, 6]: 297.9 µg·h/mL
AUCinf, Median [3, 6]: 299.4 µg·h/mL
Cmax, Mean [3, 6]: 994.9 ng/mL
Cmax, Median [3, 6]: 1010 ng/mL
MPR (MWC): metabolite versus parent ratio (molecular weight corrected), Median [3, 6]: 3.372
t1/2, Mean [3, 6]: 154.7 h
t1/2, Median [3, 6]: 152.5 h
tmax, Mean [3, 6]: 66.75 h
tmax, Median [3, 6]: 71.86 h
MPR (MWC): metabolite versus parent ratio (molecular weight corrected), Mean [3, 6]: 3.443 and 3.558

Inductive effect on CYP3A4 (pharmacodynamic assessment) (CYP3A4): minimal inductive effect
AUC0-336hr lower in the presence of rifampin [1]: 63%
AUCinf lower in the presence of rifampin [1]: 66%
% AUC (percentage extrapolated), range of individual values ([1]; 160 mg): 0.658-4.56%
CL/F, Mean ([1]; 160 mg): 0.6330 L/h
CL/F, Median ([1]; 160 mg): 0.6184 L/h
AUC(0-inf) (clinical): 86.9 µg·h/mL
AUC(0-t) (clinical): 86.8 µg·h/mL
Cmax (clinical): 4520 ng/mL
AUC(0-t) (clinical; 160 mg, AUC0-336h, Mean): 239 µg·h/mL
AUC(0-t) (clinical; 160 mg, AUC0-336h, Median): 233 µg·h/mL
AUC(0-t) (clinical; 160 mg, AUC0-t, Mean): 258 µg·h/mL
AUC(0-t) (clinical; 160 mg, AUC0-t, Median): 254 µg·h/mL
AUC(0-inf) (clinical; 160 mg, AUCinf, Geometric LS Mean): 257 µg·h/mL
AUC(0-inf) (clinical; 160 mg, AUCinf, Mean): 262 µg·h/mL
AUC(0-inf) (clinical; 160 mg, AUCinf, Median): 259 µg·h/mL
Cmax (clinical; 160 mg, Cmax, Geometric LS Mean): 4860 ng/mL
Cmax (clinical; 160 mg, Cmax, Mean): 4930 ng/mL
Cmax (clinical; 160 mg, Cmax, Median): 5140 ng/mL
Vd/F (clinical; 160 mg, Mean): 79.8 L
Vd/F (clinical; 160 mg, Median): 78.1 L
half-life (clinical; 160 mg, t1/2, Mean): 90.1 h
half-life (clinical; 160 mg, t1/2, Median): 85.7 h
Tmax (clinical; 160 mg, Mean): 1.08 h
Tmax (clinical; 160 mg, Median): 0.91 h
SMILES: CNC(=O)c1ccc(N2C(=S)N(c3ccc(C#N)c(C(F)(F)F)c3)C(=O)C2(C)C)cc1F [Enzalutamide, 4-{3-[4-cyano-3-(trifluoromethyl)phenyl]-5,5-dimethyl-4-oxo-2-sulfanylideneimidazolidin-1-yl}-2-fluoro-N-methylbenzamide]
